Measured values from PubChem BioAssay AID540252 (Sanford-Burnham Center for Chemical Genomics, 2011).
The source made the active and inactive calls. How the calls were made is not given here.

molecular target: glucose-6-phosphate dehydrogenase-6-phosphogluconolactonase (Plasmodium falciparum 3D7); test: inhibition of P. falciparum G6PD activity – biochemical, end-point NADPH detection, orthogonal assay, dose response (AID 540252); conditions: purified PfG6PD enzyme, NADPH direct detection

| Compound | IC50 |
| --- | --- |
| CCN1CCN(c2nc(C)nc3c2sc(=S)n3C)CC1 | 43.7 µM |
| c1ccc(OCc2nnc3n2N=C(c2ccccc2)CS3)cc1 | > 80 µM (inactive) |
| COc1cc(C(=O)O/N=C2/C=C(C)C(=O)C=C2C)cc(OC)c1OC | > 80 µM (inactive) |
| C=CCc1c(C)[nH]c(=S)c(C#N)c1C | > 80 µM (inactive) |
| CCOC(=O)c1c(C2COc3ccccc3O2)csc1NC(=O)c1ccco1 (configuration not stated) | > 80 µM (inactive) |
| CCN(CC)c1ccc(NC(=O)c2cccc(C)c2)cc1S(=O)(=O)Nc1ccccc1OC | > 80 µM (inactive) |
| O=C(Cn1sc2ccccc2c1=O)NC12CC3CC(CC(C3)C1)C2 | 15.1 µM |
| O=C(CBr)c1ccc([N+](=O)[O-])c(CS(=O)(=O)c2ccc(Cl)cc2)c1 | 42.5 µM |
| COc1ccc(C(=O)/C=C2\Sc3ccccc3N2C)cc1 | > 80 µM (inactive) |
| Cc1ccc(NC(=O)c2ccc(Cl)c(N3C(=O)C=CC3=O)c2)cc1 | 33.4 µM |
| CCCNC(=O)Cn1sc2nc(C)cc(C)c2c1=O | > 80 µM (inactive) |
| Cc1ccc(/C=C/C(=O)NCC2COc3ccccc3O2)o1 (configuration not stated) | > 80 µM (inactive) |
| COc1cc(NC(C)CCc2ccccc2)cc(OC)c1OC (configuration not stated) | > 80 µM (inactive) |
| Brc1cc2[nH]cnc2c2ccccc12 | > 80 µM (inactive) |
| Cc1ccc(S(=O)c2ccc([N+](=O)[O-])c3nonc23)cc1 (configuration not stated) | 60 µM |
| O=C(Nc1nnc(C2CC2)s1)c1ccc(Cl)nc1 | > 80 µM (inactive) |
| COc1cc(-c2cc(=O)c3c(O)c(OC)c(OC)c(O)c3o2)ccc1O | > 80 µM (inactive) |
| O=c1c2ccccc2sn1-c1ccc(S(=O)(=O)N2CCCCC2)cc1 | > 80 µM (inactive) |
| CCc1ccccc1N1CSC2=C(C#N)C(c3ccccc3F)CC(=O)N2C1 (configuration not stated) | > 80 µM (inactive) |
| O=C(COC(=O)c1ccc2c(c1[N+](=O)[O-])C(=O)c1ccccc1C2=O)NC1CC1 | > 80 µM (inactive) |
| O=C(O)c1cccc(N2C(=O)C=CC2=O)c1 | 67.4 µM |

| Compound | IC50 |
| --- | --- |
| CCN(CC)C(=S)SSC(=S)N(CC)CC | > 80 µM (inactive) |
| COC(=O)CCC(=O)OC1(C)C(=O)C2=CN(C3CC3)C(c3ccc(OC)cc3)=CC2=C(Br)C1=O (configuration not stated) | > 80 µM (inactive) |
| Clc1nssc1=Nc1nncs1 | 35.6 µM |
| COCCn1nnnc1C(c1cc2cc(OC)c(OC)cc2[nH]c1=O)N1CCN(c2ccc(O)cc2)CC1 (configuration not stated) | > 80 µM (inactive) |
| COc1ccc(S(=O)(=O)/N=C2\C=C(Nc3ccc(O)cc3)C(=O)c3ccccc32)cc1 | > 80 µM (inactive) |
| O=c1c2cc(C(F)(F)F)ccc2sn1-c1ccccc1 | 26.2 µM |
| Cc1ccc2nc(SCC(=O)N/N=C/c3ccco3)cc(C)c2c1 | > 80 µM (inactive) |
| CC(=O)OCC1(C)CN(c2ccccc2)NC1=O (configuration not stated) | > 80 µM (inactive) |
| CCC(C)N(CCNC(=O)c1ccc2c(c1)NC(=O)c1ccccc1S2)C1CCCCC1 (configuration not stated) | 6.49 µM |
| Cc1ccc(S(=O)(=O)SC/C=C/CSS(=O)(=O)c2ccc(C)cc2)cc1 | 64.4 µM |
| CN1CCN(C(=O)c2sc(=S)n(-c3ccccc3)c2N)CC1 | 54.6 µM |
| O=c1c2cc([N+](=O)[O-])ccc2sn1-c1ccccc1 | 13.9 µM |
| O=C1C(Cl)=C(NCCc2ccccc2)C(=O)c2ccccc21 | > 80 µM (inactive) |
| Clc1ccc(N=c2ssnc2Cl)nc1 | > 80 µM (inactive) |
| Cc1ccc(-c2c(C(=O)N/N=C/c3cccs3)nnn2-c2nonc2N)cc1 | > 80 µM (inactive) |
| O=C(Nc1nc(-c2ccncc2)cs1)C1COc2ccccc2O1 (configuration not stated) | > 80 µM (inactive) |
| O=c1c2ccccc2sn1-c1ccc(Cl)cc1Cl | 16.9 µM |
| COC(=O)CCC(=O)OC1(C)C(=O)C2=CN(c3ccc(OC)cc3)C(c3ccc(OC)cc3)=CC2=C(Br)C1=O (configuration not stated) | > 80 µM (inactive) |
| COc1cccc(/C=N/NC(=O)CSc2cccc3cccnc23)c1 | > 80 µM (inactive) |
| Cc1cc(C)c2c(=O)n(CC(=O)Nc3cccc(Cl)c3C)sc2n1 | > 80 µM (inactive) |
| Cc1ccc(-c2nc(N)s[n+]2-c2ccccc2)cc1 | 60.3 µM |
